The results in this text go back to US10227331B2 (priority 2015, dated 2019).

The IC50 is the midpoint of a concentration-inhibition curve.

Each structure is given as a SMILES string.

The target of one series is IMP-1 (Serratia marcescens, UniProt P52699). Nature of the series: biochemical. The series is classed as biochemical. The conditions noted are these: CCF2-FA substrate, 2 hours at 25° C; read-out: IMP-1 IC50. In short, it runs like this:
(§1)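 Class B activity is measured in the presence of compound by fluorescence with CCF2-FA after a 2-hour incubation at 25° C. IC50 is taken from a 4-parameter fit of semi-logarithmic dose-response data.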

In another series the target is NDM-1 (Klebsiella pneumoniae, UniProt C7C422). Nature of the series: biochemical. The note with it: CCF2-FA substrate, 2 hours at 25° C; read-out: NDM-1 IC50. It is filed as biochemical. In short, it runs like this:
as §1

The target in a further series is VIM-1 (Pseudomonas aeruginosa (strain ATCC 15692 / DSM 22644 / CIP 104116 / JCM 14847 / LMG 12228 / 1C / PRS 101 / PAO1), UniProt A0A0F7KYQ8). Briefly: biochemical. The conditions noted are these: CCF2-FA substrate, 2 hours at 25° C. An outline of the steps: as §1
For series [1], the system named is Escherichia coli expressing NDM-1 (CLB30005, CLB30016). It is filed as cell-based. The conditions noted are these: with imipenem 1 μg/ml, 95% inhibition of bacterial growth; for Escherichia coli MITC95: NDM-1 (CLB30016). In short, it runs like this:
(§2)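 Clinical strains grown overnight on blood agar, then diluted 1:100 in 1.1× CAMHB and exposed to test compound with imipenem at 1 μg/ml. Incubation was 22–24 h at 35° C; growth was read by absorbance to find the compound concentration restoring imipenem susceptibility.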

For series [2], the system named is Klebsiella pneumoniae expressing VIM-1 (IHMA599644). It is filed as cell-based. The note with it: with imipenem 1 μg/ml, 95% inhibition of bacterial growth; for Klebsiella pneumoniae MITC95: VIM-1 (IHMA599644). An outline of the steps: as §2
Series [3] deals with Serratia marcescens expressing IMP-1 (CL5741). It is filed as cell-based. The note with it: with imipenem 1 μg/ml, 95% inhibition of bacterial growth; for Serratia marcescens MITC95: IMP-1 (CL5741). In short, it runs like this:
as §2

Series [4] relates to P. aeruginosa expressing IMP-1, efflux+ (MB9798). The series is classed as cell-based, Pseudomonas aeruginosa. The note with it: for P. aeruginosa expressing IMP-1, efflux+ (MB9798) MITC95: imipenem at 2 μg/mL, in the presence of a class A, C, D serine β-lactamase inhibitor closely related to relebactam; for Efflux ratio: ratio MITC95 PA_9798/MITC95 PA_9799. An excerpt: (§3) The strain background is Pseudomonas aeruginosa PAO1.

In series [5] the test system is P. aeruginosa expressing IMP-1, efflux− (MB9799). Briefly: Efflux: concentration of MBL inhibitor which restores susceptibility to imipenem. The series is classed as cell-based, Pseudomonas aeruginosa. The note with it: imipenem at 2 μg/mL, in the presence of a class A, C, D serine β-lactamase inhibitor closely related to relebactam.
Description: as §3

Sequence of IMP-1 (P52699 whole entry, looked up, species assumed): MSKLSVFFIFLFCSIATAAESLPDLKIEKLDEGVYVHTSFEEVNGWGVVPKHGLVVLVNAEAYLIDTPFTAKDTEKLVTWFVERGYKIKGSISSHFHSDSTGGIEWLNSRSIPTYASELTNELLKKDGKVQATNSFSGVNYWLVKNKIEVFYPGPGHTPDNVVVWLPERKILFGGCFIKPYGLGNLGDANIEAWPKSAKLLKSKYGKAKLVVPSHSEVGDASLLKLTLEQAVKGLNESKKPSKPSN
Sequence of NDM-1 (C7C422 whole entry, looked up, species assumed): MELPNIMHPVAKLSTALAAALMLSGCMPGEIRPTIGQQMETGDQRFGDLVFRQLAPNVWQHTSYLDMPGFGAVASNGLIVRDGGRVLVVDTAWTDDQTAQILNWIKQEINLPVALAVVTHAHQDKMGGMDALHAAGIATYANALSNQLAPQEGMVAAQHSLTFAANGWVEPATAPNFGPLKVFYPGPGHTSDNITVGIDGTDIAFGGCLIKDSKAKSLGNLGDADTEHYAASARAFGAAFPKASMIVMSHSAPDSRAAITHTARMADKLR

On to `NCCS(=O)(=O)c1ccc(-c2cccc3[nH]c([C@H](N)CNC(=O)C(F)(F)F)nc23)c(-c2nn[nH]n2)c1S(N)(=O)=O` [Example 328, (R)—N-(2-Amino-2-(4-(4-((2-aminoethyl)sulfonyl)-3-sulfamoyl-2-(2H-tetrazol-5-yl)phenyl)-1H-benzo[d]imidazol-2-yl)ethyl)-2,2,2-trifluoroacetamide], for which the IC50 on IMP-1 worked out at 3.42 nM; on NDM-1 it was 1.3 nM; on VIM-1, 0.474 nM. The “Escherichia coli MITC95” value in series [1] was 1.563 µM. Moreover, the “Klebsiella pneumoniae MITC95” value in series [2] stood at 3.125 µM. The “Serratia marcescens MITC95” value in series [3] was determined as 3.125 µM. The “P. aeruginosa expressing IMP-1, efflux+ (MB9798) MITC95” value in series [4] is 3.125 µM. For the same molecule, the Efflux ratio in series [4] is given as 2.00. The “P. aeruginosa expressing IMP-1, efflux− (MB9799) MITC95” value in series [5] was found to be 1.563 µM.

Regarding `NCCS(=O)(=O)c1ccc(-c2cccc(N3CCS(=O)(=O)CC3)c2)c(-c2nnn[nH]2)c1S(N)(=O)=O.O=C(O)C(F)(F)F` [Example 158, 2-((3′-(1,1-dioxidothiomorpholino)-3-sulfamoyl-2-(1H-tetrazol-5-yl)-[1,1′-biphenyl]-4-yl)sulfonyl)ethanaminium 2,2,2-trifluoroacetate], the IC50 at IMP-1 is 6.27 nM; at NDM-1, 16.6 nM; against VIM-1 it was 7.08 nM. For the same molecule, the “Escherichia coli expressing NDM-1 (CLB30016) MITC95” value in series [1] amounted to 12.5 µM. Also, in series [2], the “Klebsiella pneumoniae expressing VIM-1 (IHMA599644) MITC95” value turned out to be 25 µM. Moreover, the “Serratia marcescens expressing IMP-1 (CL5741) MITC95” value in series [3] was 12.5 µM. For the same molecule, the “P. aeruginosa expressing IMP-1, efflux+ (MB9798) MITC95” value in series [4] came out at 200 µM. Also, the Efflux ratio in series [4] was found to be 64.00. Also, the “P. aeruginosa expressing IMP-1, efflux− (MB9799) MITC95” value in series [5] amounted to 3.125 µM.

As to `NC[C@@H](N)CS(=O)(=O)c1ccc(-c2cccc3[nH]c(N)nc23)c(-c2nn[nH]n2)c1S(N)(=O)=O` [Example 360, (R)-3-(2-amino-1H-benzo[d]imidazol-4-yl)-6-((2,3-diaminopropyl)sulfonyl)-2-(2H-tetrazol-5-yl) benzenesulfonamide], the figures for the IC50 on IMP-1, at NDM-1 and against VIM-1 were 0.544 nM, 0.0654 nM and 0.287 nM, respectively. For the same molecule, the “Escherichia coli MITC95” value in series [1] turned out to be 0.25 µM. The “Klebsiella pneumoniae MITC95” value in series [2] was 1.781 µM. Also, the “Serratia marcescens MITC95” value in series [3] was found to be 1.391 µM. Moreover, the “P. aeruginosa expressing IMP-1, efflux+ (MB9798) MITC95” value in series [4] is 0.8906 µM. The Efflux ratio in series [4] stood at 0.70. The “P. aeruginosa expressing IMP-1, efflux− (MB9799) MITC95” value in series [5] stood at 1.281 µM.

For `NC(=O)c1ccc(-c2ccc(S(=O)(=O)C3CNC3)c(S(N)(=O)=O)c2-c2nnn[nH]2)c(N)n1` [Example 67, 6-Amino-5-(4-(azetidin-3-ylsulfonyl)-3-sulfamoyl-2-(1H-tetrazol-5-yl)phenyl)picolinamide], the IC50 on IMP-1 is 1.32 nM; at NDM-1, 0.376 nM; on VIM-1 it was 0.333 nM. Besides, the “Escherichia coli expressing NDM-1 (CLB30016) MITC95” value in series [1] was determined as 1.563 µM. Moreover, the “Klebsiella pneumoniae expressing VIM-1 (IHMA599644) MITC95” value in series [2] came out at 3.125 µM. Further, the “Serratia marcescens expressing IMP-1 (CL5741) MITC95” value in series [3] worked out at 3.125 µM. The “P. aeruginosa expressing IMP-1, efflux+ (MB9798) MITC95” value in series [4] turned out to be 3.125 µM. The Efflux ratio in series [4] came to 2.00. The “P. aeruginosa expressing IMP-1, efflux− (MB9799) MITC95” value in series [5] came to 1.563 µM.

Take `Nc1ccc(-c2ccc(S(=O)(=O)C3CNC3)c(S(N)(=O)=O)c2-c2nn[nH]n2)cn1` [Example 25, 3-(6-aminopyridin-3-yl)-6-(azetidin-3-ylsulfonyl)-2-(2H-tetrazol-5-yl)benzenesulfonamide]: the values for the IC50 on IMP-1, on NDM-1 and against VIM-1 were 0.862 nM, 0.532 nM and 0.441 nM, respectively. Also, the “Escherichia coli expressing NDM-1 (CLB30016) MITC95” value in series [1] was 0.5156 µM. The “Klebsiella pneumoniae expressing VIM-1 (IHMA599644) MITC95” value in series [2] stood at 2.135 µM. Also, the “Serratia marcescens expressing IMP-1 (CL5741) MITC95” value in series [3] amounted to 0.6719 µM. The “P. aeruginosa expressing IMP-1, efflux+ (MB9798) MITC95” value in series [4] was found to be 2.302 µM. Also, the Efflux ratio in series [4] is listed as 2.18. Besides, the “P. aeruginosa expressing IMP-1, efflux− (MB9799) MITC95” value in series [5] came out at 1.058 µM.

`CCOC(=O)N1CC(S(=O)(=O)c2ccc(-c3cccc4[nH]c(N)nc34)c(-c3nn[nH]n3)c2S(N)(=O)=O)C1` [Example 57, ethyl 3-(4-(2-amino-1H-benzo[d]imidazol-4-yl)-2-sulfamoyl-3-(2H-tetrazol-5-yl)phenylsulfonyl)azetidine-1-carboxylate]: the IC50 on IMP-1 stood at 1.98 nM; at NDM-1, 0.264 nM; at VIM-1, 0.446 nM. Moreover, the “Escherichia coli expressing NDM-1 (CLB30016) MITC95” value in series [1] is 6.25 µM. Moreover, the “Klebsiella pneumoniae expressing VIM-1 (IHMA599644) MITC95” value in series [2] is 12.5 µM. Moreover, in series [3], the “Serratia marcescens expressing IMP-1 (CL5741) MITC95” value came out at 6.25 µM. For the same molecule, the “P. aeruginosa expressing IMP-1, efflux+ (MB9798) MITC95” value in series [4] amounted to 200 µM. Also, in series [4], the Efflux ratio came out at 64.00. Moreover, the “P. aeruginosa expressing IMP-1, efflux− (MB9799) MITC95” value in series [5] is 3.125 µM.

Take `NS(=O)(=O)c1c(S(=O)(=O)C2CNC2)ccc(-c2ccnc3[nH]nnc23)c1-c1nn[nH]n1` [Example 200, 3-(3H-[1,2,3]triazolo[4,5-b]pyridin-7-yl)-6-(azetidin-3-ylsulfonyl)-2-(2H-tetrazol-5-yl)benzenesulfonamide]: the half-inhibitory concentration (IC50) at IMP-1 amounted to 13.7 nM; at NDM-1, 5.65 nM; on VIM-1 it was 21.6 nM. Further, in series [1], the “Escherichia coli expressing NDM-1 (CLB30016) MITC95” value was found to be 25 µM. Besides, in series [2], the “Klebsiella pneumoniae expressing VIM-1 (IHMA599644) MITC95” value is 100 µM. Besides, the “Serratia marcescens expressing IMP-1 (CL5741) MITC95” value in series [3] worked out at 25 µM. The “P. aeruginosa expressing IMP-1, efflux+ (MB9798) MITC95” value in series [4] was found to be 100 µM. The Efflux ratio in series [4] is reported as 4.00. Besides, the “P. aeruginosa expressing IMP-1, efflux− (MB9799) MITC95” value in series [5] turned out to be 25 µM.

As to `Cn1cnc2cc(-c3ccc(S(=O)(=O)C4CNC4)c(S(N)(=O)=O)c3-c3nnn[nH]3)cnc21.O=C(O)C(F)(F)F` [Example 103, 3-((4-(3-methyl-3H-imidazo[4,5-b]pyridin-6-yl)-2-sulfamoyl-3-(1H-tetrazol-5-yl)phenyl)sulfonyl)azetidin-1-ium 2,2,2-trifluoroacetate], the concentration for half-maximal inhibition (IC50) on IMP-1 amounted to 1.85 nM; on NDM-1, 0.954 nM; against VIM-1, 0.581 nM. The “Escherichia coli expressing NDM-1 (CLB30016) MITC95” value in series [1] is 12.5 µM. The “Klebsiella pneumoniae expressing VIM-1 (IHMA599644) MITC95” value in series [2] is 6.25 µM. For the same molecule, the “Serratia marcescens expressing IMP-1 (CL5741) MITC95” value in series [3] was 3.125 µM. For the same molecule, the “P. aeruginosa expressing IMP-1, efflux+ (MB9798) MITC95” value in series [4] worked out at 12.5 µM. The Efflux ratio in series [4] is 8.00. Further, the “P. aeruginosa expressing IMP-1, efflux− (MB9799) MITC95” value in series [5] came to 1.563 µM.
